Measured values from US6492389B1, “Small molecule inhibitors of BCL-2 proteins” (Thomas Jefferson University, priority 1998, dated 2002).
Entries after “also recorded” stand apart in the source; their conditions may differ.

Key:
697 cells [1] = experiment: DNA fragmentation assay in 697 cells; format: cell-based, human; settings: 50 μM, 48 hours
Method: The Bcl-transfected cells were incubated with Bcl-2 inhibitor test compounds at 50 μM for 24 hours and then examined for apoptosis by the following DNA fragmentation assay. Then the treated cells were washed in PBS, lysed in digestion buffer (100 mM NaCl, 10 mM Tris-Cl, pH8, 25 mM EDTA, pH 8, 0.5% SDS, 0.1 mg/ml proteinase K), and incubated overnight at 50° C. The samples were extracted three times with phenol-chloroform, precipitated with an equal volume isopropanol, and spun down for 15 minutes in a microcentrifuge at room temperature. The DNA precipitate was washed once with 70% ethanol and resuspended in TE buffer containing 200 μg/ml DNase-free RNase A (Boehringer Mannheim, Indianapolis, Ind.). Alter incubation at 37° C. for 30 min., the DNA was loaded into a 2% agarose mini-gel with 2 μg/ml ethidium bromide, and electrophoresis is run at 50 V for 2 hours in 0.5×TBE buffer. The gel was destained with water for 1 hour arid photographed under UV light.
First, the ethidium bromide stain concentration was 1 μg/ml instead of 2 μg/ml. Second, the cells for the assay comprised 697 cells. The 697 line is a human pre-B leukemia line with a t(1; 19) chromosomal translocation (no translocation involving Bcl-2). Bcl-2 is highly expressed in this line. The high expression of Bcl-2 in 697 cells was confirmed by protein immunoblot analysis (data not shown). […] DNA markers were phiX174 DNA with restriction endonuclease Hae III (Boehringer Mannheim, Indianapolis, Ind.). The cells were incubated with test compound at 50 μM concentration or Taxol at 5 μM concentration for 48 hours.

Bcl-2 protein = biological target: T1, Bcl-2 protein (Homo sapiens, UniProt P10415); experiment: Bcl-2 competition binding assay (fluorescence polarization, Flu-1193 probe); settings: for concentration-dependent competition binding: increasing compound concentrations, HA14-1 1 to 100 μM
T1 construct: purified soluble Bcl-2 proteins purchased from Santa Cruz Biotechnology, Inc., Calif; purchased Santa Cruz Biotechnology, Inc

[2] = test system: HL-60 cell line transfected with Bcl-2; experiment: DNA fragmentation assay in Bcl-2-transfected HL-60 cells; format: cell-based, human; settings: for DNA fragmentation (reversal of Bcl-2 block of apoptosis): 50 μM, 24 hours
697 cells [3] = settings: positive control; cited from earlier work
[4] = test system: HL-60 cell line transfected with Bcl-2; settings: 50 μM etoposide; cited from earlier work
[5] = test system: HL-60 cell line (parent line); settings: 50 μM etoposide; cited from earlier work
HL-60 neo line = experiment: Control apoptosis experiment in HL-60 neo line; format: cell-based, human; settings: 50 μM

T1 sequence (P10415 1-205 limits assumed): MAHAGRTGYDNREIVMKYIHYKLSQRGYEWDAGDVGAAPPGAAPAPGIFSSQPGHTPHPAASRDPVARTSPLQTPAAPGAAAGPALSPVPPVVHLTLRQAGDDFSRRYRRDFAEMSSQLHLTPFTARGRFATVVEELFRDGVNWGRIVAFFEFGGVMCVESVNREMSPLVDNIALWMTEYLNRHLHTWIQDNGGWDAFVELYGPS

With `COc1ccc(CCNC(=O)c2sc3c([N+](=O)[O-])cc(C(F)(F)F)cc3[n+]2[O-])cc1OC` [HA02] the “DNA fragmentation / apoptosis induction” value (697 cells [1]) was “induced DNA fragmentation to various extents”, the concentration-dependent competition binding (Bcl-2 protein) was “clear concentration-dependent competition binding was observed” and the Kd (Bcl-2 protein; read-out: binding affinity (KD)) was 15 µM.

For `O=C1c2ccccc2SC(c2ccccc2)C1CN1CCN(C(C(=O)O)C(=O)O)CC1` (stereo not shown) [HA03], the concentration-dependent competition binding (Bcl-2 protein) was “clear concentration-dependent competition binding was observed”.

In the case of `COc1cc(C2c3cc4c(cc3OC(N3CCOCC3)C2C)OCO4)cc(OC)c1O` (stereo not shown) [HA11-57, 2,6-DI-MEO-4-(7-ME-6-MORPHOLIN-4-YL-6H- [1,3]DIOXOLO[4,5-G]CHROMEN-8-YL)-PHENOL], the “DNA fragmentation (reversal of Bcl-2 block of apoptosis)” value [2] is reported as “DNA fragmentation is apparent”.

In the case of `CC(=O)c1cc(C(=O)c2ccccc2)n2ccc(Cc3ccc([N+](=O)[O-])cc3)cc12` [HA13], the “DNA fragmentation (reversal of Bcl-2 block of apoptosis)” value [2] is reported as “DNA fragmentation is apparent”.

With `Nc1nc(N)c2c(Oc3ccccc3)cccc2n1` [HA04] the “DNA fragmentation / apoptosis induction” value (697 cells [1]) was “induced DNA fragmentation to various extents” and the concentration-dependent competition binding (Bcl-2 protein) was “clear concentration-dependent competition binding was observed”.

In the case of `CC(=O)O[C@H]1C(=O)[C@@]2(C)[C@H]([C@H](OC(=O)c3ccccc3)[C@]3(O)C[C@H](OC(=O)[C@H](O)[C@@H](NC(=O)c4ccccc4)c4ccccc4)C(C)=C1C3(C)C)[C@]1(OC(C)=O)CO[C@@H]1C[C@@H]2O` [Taxol], the “apoptosis induction in 697 cells (known)” value (697 cells [3]) is given as “known to induce apoptosis in 697 cells”.

With `COC1OC2COC(c3ccccc3)O[C@H]2[C@@H](OC(C)=O)[C@H]1OS(=O)(=O)c1ccccc1` (stereo partly shown) [HA14] the “DNA fragmentation (reversal of Bcl-2 block of apoptosis)” value [2] was “DNA fragmentation is apparent”.

In the case of `COc1cc([C@@H]2c3cc4c(cc3[C@@H](O[C@@H]3O[C@@H]5CO[C@@H](C)O[C@H]5[C@H](O)[C@H]3O)[C@H]3COC(=O)[C@H]23)OCO4)cc(OC)c1O` [etoposide], the “sensitivity of Bcl-2-transfected cells to apoptosis-inducing drug” value [4] is given as “resistant” and the “sensitivity of cells to apoptosis-inducing drug” value [5] is given as “sensitive”.

With `CCOC(=O)C1=C(N)Oc2ccc(Br)cc2C1C(C#N)C(=O)OCC` (stereo not shown) [HA14-1, ETHYL 2-AMINO-6- BROMO-4-(1-CYANO-2- ETHOXY-2-OXOETHYL)- 4H-CHROMENE-3- CARBOXYLATE] the “DNA fragmentation after fluoromethyl ketone pretreatment” value ([2]; 100 μM fluoromethyl ketone 2 hours, then 50 μM HA14-1 24 hours) was “neutralize the action of HA14-1” and the concentration-dependent competition binding (Bcl-2 protein) was “clear concentration-dependent competition binding was observed”.

For `O=C1Nc2ccccc2/C1=C/c1ccc[nH]1` [HA12-16], the “apoptosis induction in cells not regulated by Bcl-2” value (HL-60 neo line) was “lack of effect in inducing apoptosis” and the “DNA fragmentation / apoptosis induction” value (697 cells [1]; listed as HA01) was “induced DNA fragmentation to various extents; also recorded: induced apoptosis in the 697 cells”.
